The target in this test is T1, IRAK-4 (Homo sapiens, UniProt Q9NWZ3).
T1 sequence (Q9NWZ3 1-460): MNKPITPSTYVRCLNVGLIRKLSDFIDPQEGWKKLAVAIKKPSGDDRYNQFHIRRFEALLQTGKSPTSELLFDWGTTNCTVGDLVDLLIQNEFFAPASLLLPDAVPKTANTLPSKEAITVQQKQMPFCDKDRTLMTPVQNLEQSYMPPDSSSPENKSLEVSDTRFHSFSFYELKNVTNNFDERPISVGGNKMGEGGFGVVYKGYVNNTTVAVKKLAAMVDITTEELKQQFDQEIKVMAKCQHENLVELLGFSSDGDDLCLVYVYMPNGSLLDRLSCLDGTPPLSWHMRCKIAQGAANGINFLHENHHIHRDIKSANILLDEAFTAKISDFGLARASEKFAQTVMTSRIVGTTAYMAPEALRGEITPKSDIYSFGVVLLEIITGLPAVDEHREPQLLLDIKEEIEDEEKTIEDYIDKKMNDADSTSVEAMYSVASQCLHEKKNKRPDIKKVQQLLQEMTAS
In words: IRAK-4 ELISA, PBMC degradation. In kind it is cell-based. Details: endogenous in cells; host or cells: PBMC. The settings on record: treated overnight. As to the method:
Reagents: Human IRAK-4 Matched Antibody Pair Kit (Abcam ab218182) and ELISA Accessory Pack (Abcam ab210905).
Cell Treatment and Lysis:
1. OCI-Ly10: 200,000 cells are seeded at 1×10^6/ml in 96-well U-bottom plates 200 ul per well, treated with compound the same day. Incubate overnight. 2. PBMC: 800,000 cells are seeded at 2×10^6/ml in 96-well U-bottom deep-well plates, 400 ul per well, treated with compound the same day. Incubate overnight.
Cell lysate is collected and analyzed by ELISA for IRAK-4 levels.
Background: ELISA stands for enzyme-linked immunosorbent assay.

These results are taken from patent publication US20230099344A1, “COMPOUNDS AND METHODS FOR THE TARGETED DEGRADATION OF IRAK-4” (Arvinas Operations, Inc., priority 2021, published 2023).

Molecules are shown by their SMILES.

As to `CC(C)Oc1cc2c(cc1NC(=O)c1cnn3cccnc13)CN(C1CCN(CCN(C)c3ccc4c(c3)C(=O)N(C3CCC(=O)NC3=O)C4=O)CC1)C2=O` (stereo not drawn) [Example 75], the DC50 (as a rule, the midpoint of the concentration-degradation curve) is 1 to 5 nM; the Dmax (in general, the largest share of the target that was removed) is no less than 90%; the “PBMC DC90” value was “B (B represents a DC90 value ≥10.0 nM and <25.0 nM)”.

`CC(C)Oc1cc2c(cc1NC(=O)c1cnn3cccnc13)CN(C1CCN(C[C@H]3CCCN(c4ccc5c(c4)C(=O)N(C4CCC(=O)NC4=O)C5=O)C3)CC1)C2=O` (stereo partly drawn) [Example 76]: the DC50 was 1 to 5 nM; the Dmax was no less than 90%; the “PBMC DC90” value is “B (B represents a DC90 value ≥10.0 nM and <25.0 nM)”.

In the case of `CC(C)Oc1cc2c(cc1NC(=O)c1cnn3cccnc13)CN(C1CCN(C[C@@H]3CCCN(c4ccc5c(c4)C(=O)N(C4CCC(=O)NC4=O)C5=O)C3)CC1)C2=O` (stereo partly drawn) [Example 77], the DC50 lay in the range of 1 to 5 nM; the Dmax is no less than 90%; the “PBMC DC90” value is “B (B represents a DC90 value ≥10.0 nM and <25.0 nM)”.

Regarding `CC(C)Oc1cc2c(cc1NC(=O)c1cnn3cccnc13)CN(C1CCN(C[C@@H]3CN(c4ccc5c(c4)C(=O)N(C4CCC(=O)NC4=O)C5=O)CCO3)CC1)C2=O` (stereo partly drawn) [Example 78], the DC50 is less than 1 nM, the maximal degradation (Dmax) was no less than 90% and the “PBMC DC90” value is “A (A represents a DC90 value <10.0 nM)”.

As for `CC(C)Oc1cc2c(cc1NC(=O)c1cnn3cccnc13)CN(C1CCN(C[C@H]3CN(c4ccc5c(c4)C(=O)N(C4CCC(=O)NC4=O)C5=O)CCO3)CC1)C2=O` (stereo partly drawn) [Example 79], the DC50 was less than 1 nM, the maximal degradation (Dmax) was no less than 90% and the “PBMC DC90” value was “A (A represents a DC90 value <10.0 nM)”.

In the case of `CC(C)Oc1cc2c(cc1NC(=O)c1cnn3cccnc13)CN(C1CCN(C[C@@H]3CCN(c4ccc5c(c4)C(=O)N(C4CCC(=O)NC4=O)C5=O)C3)CC1)C2=O` (stereo partly drawn) [Example 80], the DC50 was 1 to 5 nM, the Dmax is no less than 90% and the “PBMC DC90” value is reported as “A (A represents a DC90 value <10.0 nM)”.

Take `CC(C)Oc1cc2c(cc1NC(=O)c1cnn3cccnc13)CN(C1CCN(CC3CCC4(CC3)CN(c3ccc5c(c3)C(=O)N(C3CCC(=O)NC3=O)C5=O)C4)CC1)C2=O` (stereo not drawn) [Example 81]: the DC50 was less than 1 nM, the maximal degradation (Dmax) is no less than 90% and the “PBMC DC90” value is “A (A represents a DC90 value <10.0 nM)”.

With `CC(C)Oc1cc2c(cc1NC(=O)c1cnn3cccnc13)CN(C1CCN(C[C@H]3CCN(c4ccc5c(c4)C(=O)N(C4CCC(=O)NC4=O)C5=O)C3)CC1)C2=O` (stereo partly drawn) [Example 83], the DC50 was in the range of 1 to 5 nM, the Dmax is no less than 90% and the “PBMC DC90” value is recorded as “A (A represents a DC90 value <10.0 nM)”.

As for `O=C1CCC(N2C(=O)c3ccc(N4CC(CN5CCC(N6Cc7cc(NC(=O)c8cnn9cccnc89)c(OC8CC8)cc7C6=O)CC5)C4)cc3C2=O)C(=O)N1` (stereo not drawn) [Example 84], the DC50 was less than 1 nM, the Dmax was no less than 90% and the “PBMC DC90” value is reported as “A (A represents a DC90 value <10.0 nM)”.

For `O=C1CCC(N2C(=O)c3ccc(N4CC(F)(CN5CCC(N6Cc7cc(NC(=O)c8cnn9cccnc89)c(OC8CC8)cc7C6=O)CC5)C4)cc3C2=O)C(=O)N1` (stereo not drawn) [Example 85], the DC50 was in the range of 1 to 5 nM; the Dmax lay within 80 to 90%; the “PBMC DC90” value was “C (C represents a DC90 value ≥25.0 nM and <50 nM)”.

As for `O=C1CCC(N2C(=O)c3ccc(N4CC(F)(CN5CCC(N6Cc7cc(NC(=O)c8cnn9cccnc89)c(OCC8CC8)cc7C6=O)CC5)C4)cc3C2=O)C(=O)N1` (stereo not drawn) [Example 89], the DC50 lay within 1 to 5 nM; the Dmax was 80 to 90%; the “PBMC DC90” value is “B (B represents a DC90 value ≥10.0 nM and <25.0 nM)”.

As to `CC(C)Oc1cc2c(cc1NC(=O)c1cnn3cccnc13)CN(CCOCC1CCN(c3ccc4c(c3)C(=O)N(C3CCC(=O)NC3=O)C4=O)CC1)C2=O` (stereo not drawn) [Example 90], the half-maximal degradation concentration (DC50) is less than 1 nM, the Dmax was no less than 90% and the “PBMC DC90” value was “A (A represents a DC90 value <10.0 nM)”.

As to `O=C1CCC(N2C(=O)c3ccc(N4CCN(CCOC[C@H](F)CN5Cc6cc(NC(=O)c7cnn8cccnc78)c(N7CCOCC7)cc6C5=O)CC4)cc3C2=O)C(=O)N1` (stereo partly drawn) [Example 92], the DC50 was in the range of 1 to 5 nM; the maximal degradation (Dmax) is no less than 90%; the “PBMC DC90” value was “B (B represents a DC90 value ≥10.0 nM and <25.0 nM)”.

As to `O=C1CCC(N2C(=O)c3ccc(N4CCC(COCCN5Cc6cc(NC(=O)c7cnn8cccnc78)c(N7CCOCC7)cc6C5=O)CC4)cc3C2=O)C(=O)N1` (stereo not drawn) [Example 95], the DC50 was less than 1 nM, the Dmax was no less than 90% and the “PBMC DC90” value was “A (A represents a DC90 value <10.0 nM)”.

Regarding `O=C1CCC(N2C(=O)c3ccc(N4CC(F)(CN5CCC(N6Cc7cc(NC(=O)c8cnn9cccnc89)c(C8CC8)cc7C6=O)CC5)C4)cc3C2=O)C(=O)N1` (stereo not drawn) [Example 100], the half-maximal degradation concentration (DC50) fell in the range of 1 to 5 nM; the Dmax was no less than 90%; the “PBMC DC90” value was “B (B represents a DC90 value ≥10.0 nM and <25.0 nM)”.

On to `O=C1CCC(N2C(=O)c3ccc(N4CC(F)(CN5CCC(N6Cc7cc(NC(=O)c8cnn9cccnc89)c(N8CCOCC8)cc7C6=O)CC5)C4)cc3C2=O)C(=O)N1` (stereo not drawn) [Example 101], for which the DC50 lay within 1 to 5 nM; the Dmax is 70 to 80%; the “PBMC DC90” value was “B (B represents a DC90 value ≥10.0 nM and <25.0 nM)”.

For `O=C1CCC(N2C(=O)c3ccc(N4CC(F)(CN5CCC(N6Cc7cc(NC(=O)c8cnn9cccnc89)c(OCC(F)F)cc7C6=O)CC5)C4)cc3C2=O)C(=O)N1` (stereo not drawn) [Example 102], the 50% degradation concentration (DC50) lay in the range of 1 to 5 nM; the greatest degradation seen (Dmax) is 70 to 80%; the “PBMC DC90” value is “C (C represents a DC90 value ≥25.0 nM and <50 nM)”.

On to `O=C1CCC(N2C(=O)c3ccc(N4CC(CN5CCC(N6Cc7cc(NC(=O)c8cnn9cccnc89)c(OCC(F)F)cc7C6=O)CC5)C4)cc3C2=O)C(=O)N1` (stereo not drawn) [Example 103], for which the DC50 is less than 1 nM, the Dmax is 80 to 90% and the “PBMC DC90” value is on record as “A (A represents a DC90 value <10.0 nM)”.

As to `O=C1CCC(N2Cc3cc(N4CC(F)(CN5CCC(N6Cc7cc(NC(=O)c8cnn9cccnc89)c(OCC8CC8)cc7C6=O)CC5)C4)ccc3C2=O)C(=O)N1` (stereo not drawn) [Example 104], the half-maximal degradation concentration (DC50) was less than 1 nM, the Dmax lay within 70 to 80% and the “PBMC DC90” value was “A (A represents a DC90 value <10.0 nM)”.

Regarding `COc1cc(N2CC(CN3CCC(n4cc5cc(NC(=O)c6cnn7cccnc67)c(OCC6CC6)cc5n4)CC3)C2)cc2c1C(=O)N(C1CCC(=O)NC1=O)C2` (stereo not drawn) [Example 124], the half-maximal degradation concentration (DC50) is less than 1 nM, the greatest degradation seen (Dmax) was no less than 90% and the “PBMC DC90” value is “A (A represents a DC90 value <10.0 nM)”.

Take `COc1cc(N2CC(CN3CCC(n4cc5cc(NC(=O)c6cnn7cccnc67)c(OCC6CC6)cc5n4)CC3)C2)cc2c1C(=O)N(C1CCC(=O)NC1=O)C2=O` (stereo not drawn) [Example 131]: the DC50 is less than 1 nM, the greatest degradation seen (Dmax) was no less than 90% and the “PBMC DC90” value was “A (A represents a DC90 value <10.0 nM)”.

As for `COc1cc(N2CCC(CN3CCC(n4cc5cc(NC(=O)c6cnn7cccnc67)c(OCC6CC6)cc5n4)CC3)CC2)cc2c1C(=O)N(C1CCC(=O)NC1=O)C2` (stereo not drawn) [Example 132], the DC50 was less than 1 nM, the maximal degradation (Dmax) is no less than 90% and the “PBMC DC90” value is on record as “A (A represents a DC90 value <10.0 nM)”.

As to `COc1cc(N2CCC(CN3CCC(n4cc5cc(NC(=O)c6cnn7cccnc67)c(OCC6CC6)cc5n4)CC3)CC2)cc2c1C(=O)N(C1CCC(=O)NC1=O)C2=O` (stereo not drawn) [Example 133], the half-maximal degradation concentration (DC50) was less than 1 nM, the Dmax was no less than 90% and the “PBMC DC90” value was “A (A represents a DC90 value <10.0 nM)”.

`CC(C)Oc1cc2nn(C3CCN(CCN4CCN(c5ccc6c(c5)C(=O)N(C5CCC(=O)NC5=O)C6=O)CC4)CC3)cc2cc1NC(=O)c1cnn2cccnc12` (stereo not drawn) [Example 137]: the half-maximal degradation concentration (DC50) was less than 1 nM, the maximal degradation (Dmax) was no less than 90% and the “PBMC DC90” value was “A (A represents a DC90 value <10.0 nM)”.

Consider `CC(C)Oc1cc2nn(C3CCN(CC4CCN(c5ccc6c(c5)C(=O)N(C5CCC(=O)NC5=O)C6=O)CC4)CC3)cc2cc1NC(=O)c1cnn2cccnc12` (stereo not drawn) [Example 138], for which the DC50 is less than 1 nM, the greatest degradation seen (Dmax) is no less than 90% and the “PBMC DC90” value is given as “A (A represents a DC90 value <10.0 nM)”.

Take `CC(C)Oc1cc2nn(C3CCN(CCC4(F)CN(c5ccc6c(c5)C(=O)N(C5CCC(=O)NC5=O)C6=O)C4)CC3)cc2cc1NC(=O)c1cnn2cccnc12` (stereo not drawn) [Example 139]: the DC50 was less than 1 nM, the Dmax lay in the range of 80 to 90% and the “PBMC DC90” value was “A (A represents a DC90 value <10.0 nM)”.

In the case of `CC(C)Oc1cc2nn(C3CCN(CC(F)(F)C4CN(c5ccc6c(c5)C(=O)N(C5CCC(=O)NC5=O)C6=O)C4)CC3)cc2cc1NC(=O)c1cnn2cccnc12` (stereo not drawn) [Example 147], the DC50 lay in the range of 1 to 5 nM; the maximal degradation (Dmax) was no less than 90%; the “PBMC DC90” value was “B (B represents a DC90 value ≥10.0 nM and <25.0 nM)”.

`O=C1CCC(N2C(=O)c3ccc(N4CCC(CN5CCC(n6cc7cc(NC(=O)c8cnn9cccnc89)c(OCC(F)F)cc7n6)CC5)CC4)cc3C2=O)C(=O)N1` (stereo not drawn) [Example 148]: the 50% degradation concentration (DC50) is less than 1 nM, the maximal degradation (Dmax) lay in the range of 80 to 90% and the “PBMC DC90” value is on record as “A (A represents a DC90 value <10.0 nM)”.
